Reference: ChEMBL document CHEMBL1201862, “PubChem BioAssay data set” (2004)
Activity calls are given as the source filed them.

Columns and labels:
Staphylococcus aureus = assay: Inhibitors of Bacterial Quorum Sensing Structure Activity Relationship (SAR) Analysis: Dose Response Assay. [Related pubchem assays: 700, 527 ]; assay type: functional, organism-based
[1] = target: Protein-tyrosine kinase 2-beta (Homo sapiens, UniProt Q14289);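 also: potency of inhibitors of PYK2 kinase phosphorylation of poly-GT substrate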
Chain of Protein-tyrosine kinase 2-beta (Q14289 whole entry): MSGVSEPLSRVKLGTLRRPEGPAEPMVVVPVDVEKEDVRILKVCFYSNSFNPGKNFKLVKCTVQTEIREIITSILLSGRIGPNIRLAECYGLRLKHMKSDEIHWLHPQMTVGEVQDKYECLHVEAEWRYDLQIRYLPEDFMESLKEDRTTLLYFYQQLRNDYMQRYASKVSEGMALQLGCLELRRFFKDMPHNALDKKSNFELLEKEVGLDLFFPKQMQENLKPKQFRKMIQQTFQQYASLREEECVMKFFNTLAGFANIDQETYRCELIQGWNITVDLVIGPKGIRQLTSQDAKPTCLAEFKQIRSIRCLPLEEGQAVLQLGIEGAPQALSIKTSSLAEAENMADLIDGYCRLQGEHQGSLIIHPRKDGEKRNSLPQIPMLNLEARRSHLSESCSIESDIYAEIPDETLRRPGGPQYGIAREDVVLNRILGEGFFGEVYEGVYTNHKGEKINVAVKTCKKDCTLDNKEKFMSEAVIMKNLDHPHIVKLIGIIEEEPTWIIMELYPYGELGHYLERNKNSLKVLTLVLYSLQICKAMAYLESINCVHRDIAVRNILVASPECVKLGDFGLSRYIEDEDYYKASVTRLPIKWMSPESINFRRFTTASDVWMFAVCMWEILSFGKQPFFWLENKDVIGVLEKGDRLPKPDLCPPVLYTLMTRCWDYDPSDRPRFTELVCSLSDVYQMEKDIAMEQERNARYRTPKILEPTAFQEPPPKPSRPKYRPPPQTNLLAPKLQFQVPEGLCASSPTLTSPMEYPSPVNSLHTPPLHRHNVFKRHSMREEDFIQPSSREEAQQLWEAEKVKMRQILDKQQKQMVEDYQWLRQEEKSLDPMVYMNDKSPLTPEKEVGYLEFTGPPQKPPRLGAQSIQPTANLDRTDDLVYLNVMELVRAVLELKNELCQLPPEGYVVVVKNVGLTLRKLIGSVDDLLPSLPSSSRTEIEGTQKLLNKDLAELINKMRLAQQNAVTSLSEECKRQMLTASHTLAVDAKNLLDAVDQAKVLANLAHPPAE

Vasopressin V1a receptor = Vasopressin V1a receptor (Homo sapiens, UniProt P37288); assay: Counterscreen for Oxytocin Receptor (OXTR) agonists: Fluorescence-based cell-based high throughput dose response assay to identify agonists of the vasopressin 1 receptor (V1R). [Related pubchem assays: 2435 (Primary screen (OXTR agonists in singlicate)), 434991 (Counterscreen (V1R agonists in triplicate)), 2482 (Summary (OXTR agonists)) …; assay type: functional
Oxytocin receptor = Oxytocin receptor (Homo sapiens, UniProt P30559); assay: Fluorescence-based cell-based high throughput dose response assay for agonists of the Oxytocin Receptor (OXTR). [Related pubchem assays: 2435 (Primary screen (OXTR agonists in singlicate)), 434991 (Counterscreen (V1R agonists in triplicate)), 2482 (Summary (OXTR agonists)), 434963 (Confirmation screen (OXTR agonists in triplicate))]; assay type: functional
Chain of Oxytocin receptor (P30559 whole entry): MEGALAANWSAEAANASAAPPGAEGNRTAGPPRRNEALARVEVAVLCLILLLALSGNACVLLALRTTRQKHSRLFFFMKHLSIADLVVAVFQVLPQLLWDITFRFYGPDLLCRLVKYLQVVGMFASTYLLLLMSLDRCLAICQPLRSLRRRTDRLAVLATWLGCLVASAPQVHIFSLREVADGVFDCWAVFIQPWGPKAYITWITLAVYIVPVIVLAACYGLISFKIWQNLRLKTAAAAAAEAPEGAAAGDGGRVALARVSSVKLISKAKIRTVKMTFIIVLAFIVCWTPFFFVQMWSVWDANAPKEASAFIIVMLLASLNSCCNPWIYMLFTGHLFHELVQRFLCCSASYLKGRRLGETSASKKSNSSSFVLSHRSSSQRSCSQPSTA

[2] = target: Dual specificity protein phosphatase 3 (Homo sapiens, UniProt P51452); assay: inhibition constants for human DUSP3 – biochemical, colorimetric, SAR follow-up (AID 2004)
Chain of Dual specificity protein phosphatase 3 (P51452 whole entry): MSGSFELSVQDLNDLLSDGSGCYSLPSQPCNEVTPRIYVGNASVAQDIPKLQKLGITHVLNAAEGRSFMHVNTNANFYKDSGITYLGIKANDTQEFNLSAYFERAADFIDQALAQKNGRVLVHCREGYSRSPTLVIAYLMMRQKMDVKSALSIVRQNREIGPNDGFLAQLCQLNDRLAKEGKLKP

Galanin receptor type 2 = Galanin receptor type 2 (Homo sapiens, UniProt O43603); assay: Dose Response cell-based high-throughput screening assay to identify antagonists of galanin receptor 2 (GALR2). [Related pubchem assays: 828, 866 ]; assay type: functional
Chain of Galanin receptor type 2 (O43603 whole entry): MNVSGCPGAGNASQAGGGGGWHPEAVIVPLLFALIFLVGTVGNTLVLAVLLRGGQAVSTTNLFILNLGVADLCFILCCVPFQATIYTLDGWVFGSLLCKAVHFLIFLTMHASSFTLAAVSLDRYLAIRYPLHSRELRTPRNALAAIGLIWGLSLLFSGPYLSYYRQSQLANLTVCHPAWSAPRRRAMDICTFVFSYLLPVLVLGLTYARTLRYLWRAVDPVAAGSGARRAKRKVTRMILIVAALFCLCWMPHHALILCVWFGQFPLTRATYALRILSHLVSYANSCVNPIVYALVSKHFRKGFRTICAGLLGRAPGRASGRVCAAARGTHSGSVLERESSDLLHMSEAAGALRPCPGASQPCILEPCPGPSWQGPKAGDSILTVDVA

Protein Rev = Protein Rev (Human immunodeficiency virus type 1 group M subtype B (isolate WMJ22)(HIV-1), UniProt P05866); assay: inhibitors of Rev protein–RRE RNA complex – biochemical, protein-RNA interaction, dose response (AID 842); parameters: species or system Human immunodeficiency virus 1
Cytochrome P450 2D6 = Cytochrome P450 2D6 (Homo sapiens, UniProt P10635); assay: qHTS Assay for Inhibitors and Substrates of Cytochrome P450 2D6. [Related pubchem assays: 410 ]; assay type: ADME; conditions: read-out: Potency
Cytochrome P450 2C9 = Cytochrome P450 2C9 (Homo sapiens, UniProt P11712); conditions: Potency
[3] = Luminescence-based cell-based high throughput dose response assay to identify activators of the DAF-12 from the parasite S. stercoralis (ssDAF-12).; assay type: functional
H4 = assay: Luminescence Cell-Based Dose Response HTS to Identify Activators of 5'UTR Stem-Loop Driven Prion Protein mRNA Translation in H4 Neuroglioblastoma Cells. [Related pubchem assays: 1829 (Project Summary), 1814 (Primary HTS)]; assay type: functional; conditions: Homo sapiens
[4] = Luminescence Cell-Based Dose Confirmation HTS to Identify Activators of 5'UTR Stem-Loop Driven Alpha-Synuclein mRNA Translation in H4 Neuroglioblastoma Cells. [Related pubchem assays: 1829 (Project Summary), 1814 (Primary HTS)]; assay type: functional
[5] = target: T1, Alkaline phosphatase, tissue-nonspecific isozyme (Homo sapiens, UniProt P05186)
T1 sequence (P05186 whole entry): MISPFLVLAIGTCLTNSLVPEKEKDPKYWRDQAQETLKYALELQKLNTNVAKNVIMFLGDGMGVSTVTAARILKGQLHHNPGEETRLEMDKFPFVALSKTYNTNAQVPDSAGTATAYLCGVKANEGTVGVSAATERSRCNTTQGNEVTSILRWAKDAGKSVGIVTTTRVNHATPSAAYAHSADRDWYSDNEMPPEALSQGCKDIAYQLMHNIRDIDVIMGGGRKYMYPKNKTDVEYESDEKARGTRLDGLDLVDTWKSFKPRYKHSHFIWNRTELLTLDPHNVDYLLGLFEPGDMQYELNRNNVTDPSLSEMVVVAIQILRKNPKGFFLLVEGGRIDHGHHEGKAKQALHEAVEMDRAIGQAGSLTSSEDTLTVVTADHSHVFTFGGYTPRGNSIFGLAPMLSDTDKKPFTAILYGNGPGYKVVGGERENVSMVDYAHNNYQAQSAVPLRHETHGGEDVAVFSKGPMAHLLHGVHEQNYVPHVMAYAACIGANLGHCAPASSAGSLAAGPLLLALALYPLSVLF

[6] = Luminescence Cell-Based Dose Response HTS to Identify Activators of Luciferase Translation or Activity in H4 […] Cells. [Related pubchem assays: 1829 (Project Summary), 1814 (Primary HTS)]; assay type: functional
[7] = Luminescence Cell-Based Dose-Confimation HTS to Identify Inhibitors of 5'UTR Stem-Loop Driven Alpha-Synuclein mRNA Translation in H4 Neuroglioblastoma Cells. [Related pubchem assays: 1827 (Project Summary), 1813 (Primary HTS)]; assay type: functional
[8] = target: Neuropeptide Y receptor type 1 (Homo sapiens, UniProt P25929); assay: Fluorescence-based counterscreen for agonists of NPY-Y2: cell-based high-throughput dose response assay for agonists of NPY-Y1.; assay type: functional
Chain of Neuropeptide Y receptor type 1 (P25929 whole entry): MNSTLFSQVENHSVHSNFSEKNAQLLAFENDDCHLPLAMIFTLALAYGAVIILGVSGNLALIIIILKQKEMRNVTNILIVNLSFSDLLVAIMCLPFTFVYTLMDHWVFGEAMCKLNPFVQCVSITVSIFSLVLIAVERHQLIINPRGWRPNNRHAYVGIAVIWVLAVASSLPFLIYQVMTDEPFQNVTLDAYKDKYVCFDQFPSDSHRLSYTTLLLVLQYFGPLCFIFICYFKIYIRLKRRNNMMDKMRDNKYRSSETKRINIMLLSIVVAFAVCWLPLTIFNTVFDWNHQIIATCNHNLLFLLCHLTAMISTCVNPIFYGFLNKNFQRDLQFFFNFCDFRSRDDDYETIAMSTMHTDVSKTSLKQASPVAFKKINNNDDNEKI

[9] = target: Neuropeptide Y receptor type 2 (Homo sapiens, UniProt P49146); assay: Fluorescence-based cell-based high-throughput dose response assay for agonists of NPY-Y2. [Related pubchem assays: 1703 (Screening assay (CNGC inhibitors).), 1359 (Screening assay (NPY-Y2 potentiators or agonists).), 1304 (Screening assay (NPY-Y1 potentiators or agonists).), 1710 (Screening assay (NPY-Y2 agonists).), 1791 (Summary AID.)]; assay type: functional
Chain of Neuropeptide Y receptor type 2 (P49146 whole entry): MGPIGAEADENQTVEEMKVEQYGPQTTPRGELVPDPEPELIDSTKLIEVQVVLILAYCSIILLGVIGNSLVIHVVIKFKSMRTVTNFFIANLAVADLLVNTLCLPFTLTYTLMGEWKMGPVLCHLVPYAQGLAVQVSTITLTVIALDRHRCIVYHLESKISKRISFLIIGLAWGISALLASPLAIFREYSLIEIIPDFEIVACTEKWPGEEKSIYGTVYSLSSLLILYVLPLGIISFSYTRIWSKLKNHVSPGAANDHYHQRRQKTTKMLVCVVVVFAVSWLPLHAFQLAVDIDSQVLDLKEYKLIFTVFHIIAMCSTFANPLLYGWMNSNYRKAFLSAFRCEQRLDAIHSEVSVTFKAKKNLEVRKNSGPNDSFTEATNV

HEK293 [10] = assay: Fluorescence-based counterscreen for potentiators or agonists of NPY-Y2: cell-based high-throughput dose response assay to identify inhibitors of cyclic nucleotide gated ion channel (CNGC) activity. In this assay, the parental HEK293 cell line transfected with a cyclic-nucleotide gated ion channel (CNGC)-based cAMP sensor is used to measure inhibition of isoproterenol-induced CNGC activity by test compound.; assay type: functional; conditions: Homo sapiens
[11] = target: G-protein coupled receptor 35 (Homo sapiens, UniProt Q9HC97); assay: inhibition of zaprinast-stimulated GPR35 beta-arrestin translocation – imaging, U2OS, beta-arrestin-GFP, zaprinast agonist, primary screen (AID 2058); assay type: functional;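 also: antagonist potency meaning inhibition of agonist-induced arrestin redistribution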
[12] = target: Neuropeptides B/W receptor type 1 (Homo sapiens, UniProt P48145); assay: Fluorescence-based dose response cell-based high throughput screening assay to identify antagonists of the G-protein coupled receptor 7 (GPR7). [Related pubchem assays: 1952 (Screening assay (GPR7 antagonists).), 1880 (Summary AID.)]; assay type: functional
Chain of Neuropeptides B/W receptor type 1 (P48145 whole entry): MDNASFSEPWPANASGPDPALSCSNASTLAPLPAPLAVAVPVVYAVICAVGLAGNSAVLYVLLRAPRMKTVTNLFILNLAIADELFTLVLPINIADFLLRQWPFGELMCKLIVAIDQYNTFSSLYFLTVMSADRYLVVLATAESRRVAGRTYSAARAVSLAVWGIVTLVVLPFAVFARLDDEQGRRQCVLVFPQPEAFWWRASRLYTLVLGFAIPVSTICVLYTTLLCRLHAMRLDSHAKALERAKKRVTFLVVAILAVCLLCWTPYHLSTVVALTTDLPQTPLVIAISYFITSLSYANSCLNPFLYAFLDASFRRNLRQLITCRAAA

[13] = target: Melanin-concentrating hormone receptor 1 (Homo sapiens, UniProt Q99705); assay: Fluorescence-based counterscreen for antagonists of the G-protein coupled receptor 7 (GPR7): cell-based high throughput dose response assay to identify antagonists of the melanin-concentrating hormone receptor 1 (MCHR1).; assay type: functional
Chain of Melanin-concentrating hormone receptor 1 (Q99705 whole entry): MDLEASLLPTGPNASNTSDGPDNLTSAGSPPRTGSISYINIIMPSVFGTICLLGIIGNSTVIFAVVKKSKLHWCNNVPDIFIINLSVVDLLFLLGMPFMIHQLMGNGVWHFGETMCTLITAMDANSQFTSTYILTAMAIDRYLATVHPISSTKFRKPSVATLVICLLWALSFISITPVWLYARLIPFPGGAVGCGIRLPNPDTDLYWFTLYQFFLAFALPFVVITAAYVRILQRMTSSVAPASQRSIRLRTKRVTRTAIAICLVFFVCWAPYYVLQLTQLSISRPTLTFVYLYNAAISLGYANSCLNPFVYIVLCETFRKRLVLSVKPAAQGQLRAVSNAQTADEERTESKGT

[14] = target: Induced myeloid leukemia cell differentiation protein Mcl-1 (Homo sapiens, UniProt Q07820); assay type: functional
Chain of Induced myeloid leukemia cell differentiation protein Mcl-1 (Q07820 whole entry, the tested form may be a part): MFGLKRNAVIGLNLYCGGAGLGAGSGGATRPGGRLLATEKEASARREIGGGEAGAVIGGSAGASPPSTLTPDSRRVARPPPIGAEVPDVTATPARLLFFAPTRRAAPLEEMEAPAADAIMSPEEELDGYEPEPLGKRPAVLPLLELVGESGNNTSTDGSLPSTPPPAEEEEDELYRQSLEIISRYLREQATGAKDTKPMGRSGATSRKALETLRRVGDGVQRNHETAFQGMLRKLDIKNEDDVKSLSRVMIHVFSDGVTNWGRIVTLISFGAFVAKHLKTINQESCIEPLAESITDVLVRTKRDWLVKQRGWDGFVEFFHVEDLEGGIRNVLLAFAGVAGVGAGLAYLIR

[15] = CCR5-tropic HIV-1 fusion blockers – cell-based, CCR5-tropic Env, dose response (AID 2279); assay type: functional
[16] = HepG2 cell cytotoxicity, dose response, cytotoxicity control for non-replicating M. tuberculosis project (AID 489018); assay type: functional; conditions: Mycobacterium tuberculosis
Streptococcus = assay: GAS UMAA2166 growth inhibition – luminescence, BacTiterGlo, counter-screen for streptokinase expression inhibitor project, dose response (AID 1915); assay type: functional, organism-based;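 also: potency for reduction of bacterial viability or growth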
Streptokinase A = target: T2, Streptokinase A (Streptococcus pyogenes serotype M1, UniProt P10520); assay: viability-normalized secreted streptokinase activity reduction – plasminogen activation absorbance, OD405, dose response (AID 1914); assay type: functional, Streptococcus pyogenes M1 GAS;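 also: secreted streptokinase activity via plasminogen activation per viability signal from cell pellet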
T2 sequence (P10520 whole entry): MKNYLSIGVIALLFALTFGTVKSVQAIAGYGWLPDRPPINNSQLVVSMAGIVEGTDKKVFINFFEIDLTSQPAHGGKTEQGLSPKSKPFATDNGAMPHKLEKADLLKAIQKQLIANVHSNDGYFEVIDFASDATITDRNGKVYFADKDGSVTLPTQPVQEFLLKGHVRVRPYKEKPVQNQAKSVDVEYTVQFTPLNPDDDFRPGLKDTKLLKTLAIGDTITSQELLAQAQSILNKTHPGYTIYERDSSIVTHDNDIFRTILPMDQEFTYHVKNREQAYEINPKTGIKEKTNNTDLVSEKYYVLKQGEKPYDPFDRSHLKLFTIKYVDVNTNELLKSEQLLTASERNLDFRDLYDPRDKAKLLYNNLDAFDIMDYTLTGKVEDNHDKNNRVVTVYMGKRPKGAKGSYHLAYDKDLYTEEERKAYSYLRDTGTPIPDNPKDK

[17] = Luminescence-based counterscreen assay for KLF5 inhibitors: dose response cell-based high throughput screening assay to identify cytotoxic compounds using the IEC-6 intestinal epithelial cell line. [Related pubchem assays: 1700 (Primary screen.), 1834 (Confirmation screen.), 1858 (Summary AID.), 1905 (Counterscreen.)]; assay type: functional
[18] = Vero E6 cell cytotoxicity, dose response, cytotoxicity control for non-replicating M. tuberculosis project, secondary assay (AID 492998); assay type: functional, VeroE6; conditions: Vero C1008
cells [19] = assay type: functional, cell-based
cells [20] = assay type: functional, cell-based; remark: listed apart in the source
INS1 = assay: INS-1E survival protection against cytokine death – cell-based, luminescence, retest, dose response (AID 449756); assay type: functional; conditions: Rattus norvegicus;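 also: cell death triggered by IL-1 beta plus TNF-alpha plus IFN-gamma mixture; protective hits raise ATP signal compared with cytokine alone wells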
[21] = THP-1 cell cytotoxicity, dose response, cytotoxicity control for non-replicating M. tuberculosis project (AID 489025); assay type: functional
cells [22] = assay type: functional
[23] = test system: Streptococcus sp. 'group A'; assay: Streptococcus pyogenes SK(-)GAS viability under kanamycin – luminescence, BacTiterGlo, confirmation, counter-screen for streptokinase expression inhibitor project, dose response (AID 1900); assay type: functional, organism-based
[24] = ADP-Glo luciferase signal interference – biochemical, luminescence, cherry-picked samples, set 2, artefact control for CDK5 inhibitor project, dose response (AID 504546); assay type: functional, cell-based
[25] = target: Cyclin-dependent kinase 5/CDK5 activator 1 (Homo sapiens, UniProt Q00535); assay: blockade of human CDK5 activity – biochemical, cherry-picked samples, set 2, dose response (AID 504545)
Tumor necrosis factor = Tumor necrosis factor (Homo sapiens, UniProt P01375); assay: analog potency on TNFa NF-kB signaling – cell-based, revised, SAR follow-up (AID 2337); assay type: functional
HEK293 [26] = assay: cells; conditions: Homo sapiens
[27] = target: Nucleotide-binding oligomerization domain-containing protein 2 (Homo sapiens, UniProt Q9HC29); assay: PubChem AID 2334; assay type: functional
[28] = target: Nucleotide-binding oligomerization domain-containing protein 1 (Homo sapiens, UniProt Q9Y239); assay: blockers of NOD1 pathway activity – revised, SAR follow-up (AID 2333); assay type: functional
Estrogen receptor beta [29] = target: T3, Estrogen receptor beta (Homo sapiens, UniProt Q92731);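 also: recombinant ER-beta bound to coactivator SRC1 peptide in presence of estradiol agonist; inhibitors block coactivator peptide binding and lower the FRET signal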
T3 sequence (Q92731 whole entry): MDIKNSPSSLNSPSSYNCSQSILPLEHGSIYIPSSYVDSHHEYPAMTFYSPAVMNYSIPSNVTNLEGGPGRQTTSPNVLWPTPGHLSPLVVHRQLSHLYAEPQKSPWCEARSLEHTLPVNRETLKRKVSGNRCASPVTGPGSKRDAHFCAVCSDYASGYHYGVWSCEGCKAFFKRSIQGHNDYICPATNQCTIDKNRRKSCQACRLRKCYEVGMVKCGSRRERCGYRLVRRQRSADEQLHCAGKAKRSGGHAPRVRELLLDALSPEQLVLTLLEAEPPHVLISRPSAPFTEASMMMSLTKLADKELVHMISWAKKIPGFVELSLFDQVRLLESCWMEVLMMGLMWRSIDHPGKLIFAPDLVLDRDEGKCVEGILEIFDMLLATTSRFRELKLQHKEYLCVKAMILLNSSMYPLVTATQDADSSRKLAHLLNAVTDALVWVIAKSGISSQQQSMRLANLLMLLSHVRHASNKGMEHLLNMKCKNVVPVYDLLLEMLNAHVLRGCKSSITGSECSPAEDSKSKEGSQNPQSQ

Estrogen receptor beta [30] = target: T3, Estrogen receptor beta; assay: blockers of SRC-3 recruitment to ERβ – biochemical, ELISA, streptavidin-HRP readout, orthogonal assay, confirmation (AID 1060)
Estrogen receptor = Estrogen receptor (Homo sapiens, UniProt P03372);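 also: potency for inhibiting coactivator peptide recruitment to the receptor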
NADPH oxidase 1 = NADPH oxidase 1 (Homo sapiens, UniProt Q9Y5S8); assay type: functional, cell-based;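 also: Cell-based assay with luminescence read-out, IC50 derived from inhibitor dose-response curves; intracellular ROS from endogenous NOX1 in intact HT29 colon cancer cells; potency of inhibitors that lower the ROS luminescence signal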
Chain of NADPH oxidase 1 (Q9Y5S8 whole entry): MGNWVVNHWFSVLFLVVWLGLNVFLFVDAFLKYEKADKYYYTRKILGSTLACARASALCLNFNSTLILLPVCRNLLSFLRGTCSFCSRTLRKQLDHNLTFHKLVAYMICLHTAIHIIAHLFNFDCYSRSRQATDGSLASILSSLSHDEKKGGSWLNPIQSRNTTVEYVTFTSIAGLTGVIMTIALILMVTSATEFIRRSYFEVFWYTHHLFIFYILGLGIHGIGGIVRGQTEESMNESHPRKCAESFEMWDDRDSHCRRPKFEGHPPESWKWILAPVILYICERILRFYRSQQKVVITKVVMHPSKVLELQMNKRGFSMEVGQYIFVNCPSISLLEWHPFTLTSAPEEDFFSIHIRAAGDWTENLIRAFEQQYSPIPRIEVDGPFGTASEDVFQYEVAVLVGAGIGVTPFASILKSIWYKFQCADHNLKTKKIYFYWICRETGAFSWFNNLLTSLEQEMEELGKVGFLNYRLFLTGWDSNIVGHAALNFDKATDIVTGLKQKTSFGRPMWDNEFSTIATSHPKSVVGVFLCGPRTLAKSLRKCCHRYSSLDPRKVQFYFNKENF

CC1CCCN(C(C(=O)Nc2ccc3c(c2)OCO3)c2ccccc2)C1 (centres undefined)
IC50 (Staphylococcus aureus): 0.162 µM (active)

COc1ccc([N+](=O)[O-])cc1COc1cc(C)cc2oc(=O)cc(-c3ccccc3)c12
IC50 [1]: > 69.5 µM (not active)

Oc1ccc(Cl)cc1CNCc1ccc(F)cc1
EC50 (Vasopressin V1a receptor): 11 µM (not active)
EC50 (Oxytocin receptor): 15.5 µM (not active)

COc1cccc2c1NC(c1cccc3ccccc13)C1CC=CC21 (centres undefined)
Ki [2]: 141 µM (inactive)

CCOC(=O)COc1ccc(S(=O)(=O)NCc2ccncc2)cc1
IC50 (Galanin receptor type 2): > 42 µM (not active)

CC(NCc1ccc(N(C)C)cc1)C1CC2CCC1C2 (centres undefined)
IC50 (Protein Rev): > 79.4 µM (not active)

CC(=O)OCC1OC(c2ccc3c(c2)OCO3)C=CC1OC(C)=O (centres undefined)
AC50 (Cytochrome P450 2D6): 7.94 µM (inconclusive)
AC50 (Cytochrome P450 2C9): 5.01 µM (inconclusive)

Cc1cc(C)c(C#N)c(SCc2nc3ccccc3[nH]2)n1
IC50 [3]: > 67.5 µM (inactive)
EC50 (H4): 44.6 µM (active)
EC50 [4]: 0.262 µM (active)
EC50 [5]: > 100 µM (not active)
EC50 [6]: 14.9 µM (active)

Nc1nc(CSc2nnnn2-c2ccccc2)nc(Nc2ccccc2)n1
EC50 [7]: 15.5 µM (active)

c1ccc(CSc2nc3c[nH]cnc-3n2)cc1
EC50 [8]: > 35.4 µM (not active)
EC50 [9]: > 35.4 µM (not active)
EC50 (HEK293 [10]): > 35.4 µM (not active)

COc1ccc2nc3oc(C(=O)N4CCN(c5cccc(Cl)c5)CC4)cc3cc2c1
IC50 [11]: 2.14 µM (active)

CCOC(=O)N1CCN(S(=O)(=O)c2ccc(C(=O)N(CCCN(C)C)c3nc4ccc(CC)cc4s3)cc2)CC1
IC50 [12]: 14.2 µM (not active)
IC50 [13]: 18.3 µM (not active)

COc1cc(/C=C2\SC(=O)N(Cc3ccc(F)cc3)C2=O)cc([N+](=O)[O-])c1O
IC50 [14]: 7.65 µM (active)
IC50 [15]: 45.6 µM (active)

CCOc1cccc(/C=N/NC(=O)c2ccc3c(c2)OCCO3)c1O
CC50 [16]: 4.3 µM (active)
EC50 (Streptococcus): 2.77 µM (active)
EC50 (Streptokinase A): 1.11 µM (active)
IC50 [17]: 12.5 µM (not active)
CC50 [18]: 6.58 µM (active)
EC50 (cells [19]): 50.3 µM (active)
EC50 (cells [20]): > 350 µM (not active)
AC50 (INS1): 3.01 µM (active)
CC50 [21]: 3.18 µM (active)
IC50 (cells [22]): > 50 µM (active)
EC50 [23]: 1.49 µM (active)

Cc1occc1C(=O)N/N=C/c1ccc(N(C)C)cc1
AC50 [24]: 26.4 µM (active)
AC50 [25]: 19.5 µM (active)

O=C(Nc1sc2c(c1C(=O)O)CCCC2)c1cccs1
IC50 (Tumor necrosis factor): > 20 µM (inactive)
IC50 (HEK293 [26]): > 20 µM (inactive)
IC50 [27]: > 20 µM (inactive)
IC50 [28]: > 20 µM (inactive)

Cc1ccccc1-n1c(SC/C(O)=C(\C#N)c2nc3ccccc3[nH]2)nnc1-c1ccncc1
IC50 (Estrogen receptor beta [29]): > 50 µM (not active)
IC50 (Estrogen receptor beta [30]): 0.371 µM (not active)

CCCCOC(=O)c1cc(-c2ccc(/C=N/n3cnnc3)o2)ccc1Cl
IC50 (Estrogen receptor): > 50 µM (not active)

O=C(Nc1ccccc1)Nc1nc(-c2ccccc2)cs1
IC50 (NADPH oxidase 1): > 17 µM (not active)
